# Reference: patent US7393824B1, “Methods of peptide preparation” (Lytix Biopharma, priority 2000, dated 2008)
# Residues, ends and D or L forms follow the SMILES beside them.
# Tests used:
# [1] = test system: Meth A murine sarcoma cell line; type: cell-based; conditions: 4 h
# Experimental: Peptide solutions (0.1 ml) were added and the plates incubated at 37° C. for 30 minutes, 4 hours or 24 hours. The cytotoxicity was measured using the MTT method (Mosmann et al., J. Immunol. (1986) 136, 2348-2357).
# [2] = test system: MRC-5 cells (normal fibroblasts); assay: Fibroblast assay (MTT); type: cell-based
# Experimental: The cells were washed with PBS and then trypsinated using 2 ml trypsin (for a 80 cm culture flask). After the cells had detached from the wall, usually after ca 3 min. of incubation, 5 ml medium with FBS were added. The cells were resuspended and counted. The cells were then transferred to a centrifugation tube and spinned at 1500 rpm for 10 min. The supernatant was removed and the cells resuspended to a concentration of 1×10^5 cells/ml. 100 ul cells suspension was transferred to each well in a 96-well microtiter plate and incubated for 25 hours to allow the cells to attach. Following the incubation, the medium containing serum was removed by turning the plate upside down against a piece of tissue. 100 ul medium without serum and L-glutamine (assay medium) was added to each well, and then removed as before. This was done to remove any trace of serum. […] The rest of the assay was done as previously described for methA, except that after the 2 hour incubation following MTT addition, 80 ul medium instead of 130 ul were removed.
# human red blood cells = assay: Hemolytic assay; type: cell-based; conditions: for EC50: red cells of human
# Experimental: The hemolytic activities of the peptides were determined using fresh human red blood cells. 8 ml blood was taken from a healthy person. 4 ml blood was transferred to a polycarbonate tube containing heparin to a final concentration of 10 U/ml, and the remaining 4 ml blood was transferred to a glass tube containing EDTA with final concentration of 15% EDTA. The erythrocytes were isolated from heparin-treated blood by centrifugation in 1500 rpm for 10 min and washed three times with phosphate-buffered saline (PBS) to remove plasma and buffy coat. The cell pellet was resuspended in PBS to make the final volume of 4 ml. The peptide was diluted to a concentration of 2 mg/ml and 0.1 mg/ml. The peptide was further diluted to the concentrations as stated in Table 1. For each tube PBS was added first, then RBCs and peptide solutions. The hematocrit in the blood treated with EDTA was determined after 30 min with Sysmex K-1000, and the resuspended RBCs were diluted into 10% hematocrit. RBCs in PBS (1%) with and without peptides (Table 18) were incubated in a shaker at […] for 1 hour and then centrifuged at 4000 rpm for 5 min. The supernatant were carefully transferred to new polycarbonate tubes and the absorbance of the supernatant was measured at 540 nm. Baseline hemolysis was hemoglobin released in the presence of PBS, and 100% hemolysis was hemoglobin released in the presence of 0.1% Triton X-100.
# [3] = test system: Escherichia coli ATCC 25922; type: cell-based; conditions: ATCC 25922
# Experimental: (§1) The bacterial strains used were: Escherichia coli ATCC 25922 and Staphylococcus aureus ATCC 25923. All strains were stored at −70° C. The bacteria were grown in 2% Bacto Peptone water (Difco 1807-17-4). All tests were performed with bacteria in mid-logarithmic growth phase. Determination of the minimum inhibitory concentration (MIC) of the peptides for bacterial strains were performed in 1% Bacto Peptone water. A standard microdilution technique with an inoculum of 2×10^6 CFU/ml was used. All assays were performed in triplets. Since the peptides are positively charged and therefore could adhere to the plastic wells, we controlled the actual concentration of the peptides in the solution by HPLC. There was no difference between the concentration of the peptides before or after adding the solution to the plastic wells.
# [4] = test system: Staphylococcus aureus ATCC 25923; type: cell-based; conditions: ATCC 25923
# Experimental: as §1
# E. coli = conditions: from the literature; cited from earlier work
# S. aureus = conditions: from the literature; cited from earlier work
# fibroblasts = conditions: cited from earlier work
# human erythrocytes = conditions: cited from earlier work
Compound,IC50 [1] [µM],IC50 [2] [µM],toxicity to fibroblasts [2],cytotoxic / hemolytic activity against red blood cells (human red blood cells),EC50 (human red blood cells) [µM],Mic E-coli [3] [µM],Mic S. Aureus [4] [µM],MIC against E. coli (E. coli) [µM],MIC against S. aureus (S. aureus) [µM],activity against fibroblasts (fibroblasts),activity against human erythrocytes (human erythrocytes)
"CSCC[C@H](NC(=O)[C@H](CCCNC(=N)N)NC(=O)[C@H](C)NC(=O)[C@H](C)NC(=O)[C@H](C)NC(=O)[C@H](CCCNC(=N)N)NC(=O)[C@H](Cc1ccccc1)NC(=O)[C@H](C)NC(=O)[C@H](CCCCN)NC(=O)[C@H](CCCNC(=N)N)NC(=O)[C@H](Cc1c[nH]c2ccccc12)NC(=O)[C@H](C)NC(=O)[C@@H]1CCCN1)C(=O)N[C@@H](CC(C)C)C(=O)N[C@@H](CCCCN)C(=O)N[C@@H](CCCCN)C(=O)N[C@@H](C)C(=O)N[C@@H](C)C(=O)O [W9,11→A9,11, LFB 14-31A2,6,9,10,11,17F7K16L14R4] (H-PAWRKAFRAAARMLKKAA-OH)",110,> 489,no cytotoxic activity,no cytotoxic activity,> 489,14.7,14.7,–,–,–,–
"CC[C@H](C)[C@H](NC(=O)[C@H](C)NC(=O)[C@@H](NC(=O)[C@H](CCCNC(=N)N)NC(=O)[C@H](Cc1ccccc1)NC(=O)[C@H](C)NC(=O)[C@H](CCCCN)NC(=O)[C@H](CCCNC(=N)N)NC(=O)[C@H](Cc1c[nH]c2ccccc12)NC(=O)[C@H](C)NC(=O)[C@@H]1CCCN1)[C@@H](C)CC)C(=O)N[C@@H](CCCNC(=N)N)C(=O)N[C@@H](CCSC)C(=O)N[C@@H](CC(C)C)C(=O)N[C@@H](CCCCN)C(=O)N[C@@H](CCCCN)C(=O)N[C@@H](C)C(=O)N[C@@H](C)C(=O)O [W9,11→I9,11] (H-PAWRKAFRIAIRMLKKAA-OH; N-terminus and C-terminus assumed)",22,26,–,–,284,35,19,–,–,–,–
(KAAKKAA)3,–,–,–,–,–,–,–,8,8,no measurable activity,no measurable activity
